Measured values reported in patent US8889826B2, “Peptide antibiotics and methods for making same” (priority 2004, dated 2014).

Experiments:
[1] = test system: Escherichia coli, ATCC #26; assay: MIC by serial twofold broth dilution, E. coli; type: cell-based; design: unit not given here; settings: Mueller Hinton broth
Text: (§1) The antibacterial activities of certain new compounds are indicated in Table 4 as their minimum inhibitory concentrations (MICs) against Escherichia coli, Staphylococcus aureus, and Pseudomonas aeruginosa. MICs can be determined by the conditions disclosed in Table 4, as well as in Jarolmen, H. et al., “Activity of Minocycline Against R-Factor Carrying Enterobacteriaceae,” Infectious Immunity, Vol. 1, No. 4, pp. 321-326, 1970, the disclosure of which is incorporated herein by reference.

[2] = test system: Staphylococcus aureus Smith; assay: MIC by serial twofold broth dilution, Staph; type: cell-based; design: unit not given here; settings: Mueller Hinton broth
Text: as §1

[3] = test system: Pseudomonas aeruginosa, ATCC 27853; assay: MIC by serial twofold broth dilution, Pseudo; type: cell-based; design: unit not given here; settings: Mueller Hinton broth
Text: as §1

[4] = human, in vivo; cited from earlier work

Substance | E. coli MIC [1] | Staph MIC [2] | Pseudo MIC [3] | neurotoxicity, overall incidence [4] [%]
Colistin [reference compound] | 0.6 | >20 | 0.6 | 7.3
Cyclohexylcarbamyl-[Ile^7]-Polymyxin Decapeptide [Compound 48] | 0.6 |  | 0.6 | 
N-(n-Decanoyl)phenylalanyl-colistin decapeptide [Compound 52] | 1.25 | 2.5 | 2.5 | 
P-Toluenesulfonyl-Colistin decapeptide [Compound 53] | 1.25 | >20 | 0.6 | 
Polymyxin B1 [reference compound] | 0.6 | 10 | 0.6 | 
Polymyxin B [reference compound] | 0.6 | >10 | 0.6 | 
[Ile^7]-polymyxin B1 [reference compound] | 0.6 | 20 | 1.25 | 
n-Octylcarbamyl-colistin decapeptide [Compound 51] | 1.25 | 20 | 0.6 | 
